Columns and labels:
[1] = biological target: Ribosomal protein S6 kinase alpha-3 (Homo sapiens) (UniProt P51812); assay: RPS6KA3 (RSK2) Kinase screen; details: Compound concentration 1.0 uM
[2] = biological target: 3-phosphoinositide-dependent protein kinase 1 (PDPK1) (Homo sapiens) (UniProt O15530); assay: PDK1 Kinase screen; details: Compound concentration 1.0 uM
[3] = biological target: Calcium/calmodulin-dependent protein kinase type 1D (Homo sapiens) (UniProt Q8IU85); assay: CAMK1D (CaMKI delta) Kinase screen; details: Compound concentration 1.0 uM
[4] = biological target: Serine/threonine-protein kinase PLK1 (Homo sapiens) (UniProt P53350); assay: PLK1 Kinase screen; details: Compound concentration 1.0 uM
[5] = biological target: T1, Muscle, skeletal receptor tyrosine-protein kinase (Homo sapiens) (UniProt O15146); assay: MUSK Kinase screen; details: Compound concentration 1.0 uM
T1 sequence (whole entry): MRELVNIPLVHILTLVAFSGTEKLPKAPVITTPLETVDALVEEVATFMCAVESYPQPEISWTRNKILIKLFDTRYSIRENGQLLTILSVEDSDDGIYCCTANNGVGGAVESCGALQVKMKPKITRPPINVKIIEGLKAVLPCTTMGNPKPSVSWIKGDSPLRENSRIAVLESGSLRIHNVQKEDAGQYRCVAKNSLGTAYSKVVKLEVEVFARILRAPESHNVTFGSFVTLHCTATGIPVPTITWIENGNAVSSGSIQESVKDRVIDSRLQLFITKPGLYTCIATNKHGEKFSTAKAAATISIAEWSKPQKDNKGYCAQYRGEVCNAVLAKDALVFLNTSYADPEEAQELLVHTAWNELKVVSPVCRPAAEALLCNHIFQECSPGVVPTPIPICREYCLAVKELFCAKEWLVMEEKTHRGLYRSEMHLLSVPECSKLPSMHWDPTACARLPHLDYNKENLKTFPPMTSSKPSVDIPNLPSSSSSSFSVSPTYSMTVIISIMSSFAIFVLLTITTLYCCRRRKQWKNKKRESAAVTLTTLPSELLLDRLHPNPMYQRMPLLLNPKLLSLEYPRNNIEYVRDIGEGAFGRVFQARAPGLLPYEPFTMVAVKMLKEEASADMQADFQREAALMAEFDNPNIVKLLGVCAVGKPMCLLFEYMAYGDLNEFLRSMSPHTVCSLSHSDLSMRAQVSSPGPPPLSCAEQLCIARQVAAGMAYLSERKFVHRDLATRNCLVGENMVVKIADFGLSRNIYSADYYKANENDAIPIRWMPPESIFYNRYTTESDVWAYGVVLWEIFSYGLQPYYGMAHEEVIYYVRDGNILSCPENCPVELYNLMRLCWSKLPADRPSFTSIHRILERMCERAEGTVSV

[6] = biological target: Tyrosine-protein kinase Lck (Homo sapiens) (UniProt P06239); assay: LCK Kinase screen; details: Compound concentration 1.0 uM
[7] = biological target: Serine/threonine-protein kinase Nek4 (Homo sapiens) (UniProt P51957); assay: NEK4 Kinase screen; details: Compound concentration 1.0 uM
Sequence of Serine/threonine-protein kinase Nek4 (Homo sapiens) (P51957 whole entry, looked up): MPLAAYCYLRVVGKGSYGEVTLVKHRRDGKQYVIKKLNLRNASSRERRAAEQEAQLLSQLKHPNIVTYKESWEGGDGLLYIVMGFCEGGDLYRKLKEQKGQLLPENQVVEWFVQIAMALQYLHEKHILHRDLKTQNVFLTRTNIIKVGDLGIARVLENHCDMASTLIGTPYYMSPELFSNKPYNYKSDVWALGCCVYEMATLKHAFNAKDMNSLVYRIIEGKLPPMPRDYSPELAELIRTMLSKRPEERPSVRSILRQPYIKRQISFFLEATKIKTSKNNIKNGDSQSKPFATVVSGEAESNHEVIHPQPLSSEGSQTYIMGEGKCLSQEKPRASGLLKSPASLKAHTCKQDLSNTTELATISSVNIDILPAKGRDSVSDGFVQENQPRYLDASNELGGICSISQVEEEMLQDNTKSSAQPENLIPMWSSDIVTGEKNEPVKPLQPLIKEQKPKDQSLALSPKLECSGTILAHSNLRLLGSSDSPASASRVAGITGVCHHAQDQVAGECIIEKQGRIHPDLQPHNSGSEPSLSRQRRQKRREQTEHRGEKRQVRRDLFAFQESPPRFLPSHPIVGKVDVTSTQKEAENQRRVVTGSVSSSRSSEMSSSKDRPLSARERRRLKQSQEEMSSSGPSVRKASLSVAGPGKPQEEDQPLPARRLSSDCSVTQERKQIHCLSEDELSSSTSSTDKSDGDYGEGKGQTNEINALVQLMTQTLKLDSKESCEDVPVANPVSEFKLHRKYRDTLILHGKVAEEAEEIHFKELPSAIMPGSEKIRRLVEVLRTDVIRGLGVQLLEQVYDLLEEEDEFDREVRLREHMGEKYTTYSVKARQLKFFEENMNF

[8] = biological target: High affinity choline transporter 1 (Homo sapiens) (UniProt Q9GZV3); assay: Transporter, Choline Eurofins-Panlabs radioligand binding assay; set-up: ligand concentration 0.75 nM; details: Rattus norvegicus; Compound concentration 10.0 uM
Sequence of High affinity choline transporter 1 (Homo sapiens) (Q9GZV3 whole entry): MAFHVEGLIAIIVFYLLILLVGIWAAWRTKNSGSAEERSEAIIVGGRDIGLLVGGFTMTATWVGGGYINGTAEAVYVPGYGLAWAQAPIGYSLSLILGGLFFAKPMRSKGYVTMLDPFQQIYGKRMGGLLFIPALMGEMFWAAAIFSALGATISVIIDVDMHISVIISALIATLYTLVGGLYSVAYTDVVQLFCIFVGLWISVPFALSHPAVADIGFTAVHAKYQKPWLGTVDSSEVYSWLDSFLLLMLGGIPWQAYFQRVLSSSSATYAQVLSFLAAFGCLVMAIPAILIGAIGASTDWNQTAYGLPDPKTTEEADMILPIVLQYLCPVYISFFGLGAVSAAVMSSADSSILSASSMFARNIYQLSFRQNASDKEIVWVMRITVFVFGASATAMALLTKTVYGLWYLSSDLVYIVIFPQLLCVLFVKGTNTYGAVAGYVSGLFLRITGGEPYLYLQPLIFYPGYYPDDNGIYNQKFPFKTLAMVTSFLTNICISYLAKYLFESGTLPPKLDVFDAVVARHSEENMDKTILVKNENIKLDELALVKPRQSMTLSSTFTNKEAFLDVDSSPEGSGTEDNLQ

[9] = biological target: Bone morphogenetic protein receptor type-1A (Homo sapiens) (UniProt P36894); assay: BMPR1A (ALK3) Kinase screen; details: Compound concentration 1.0 uM
Sequence of Bone morphogenetic protein receptor type-1A (Homo sapiens) (P36894 whole entry): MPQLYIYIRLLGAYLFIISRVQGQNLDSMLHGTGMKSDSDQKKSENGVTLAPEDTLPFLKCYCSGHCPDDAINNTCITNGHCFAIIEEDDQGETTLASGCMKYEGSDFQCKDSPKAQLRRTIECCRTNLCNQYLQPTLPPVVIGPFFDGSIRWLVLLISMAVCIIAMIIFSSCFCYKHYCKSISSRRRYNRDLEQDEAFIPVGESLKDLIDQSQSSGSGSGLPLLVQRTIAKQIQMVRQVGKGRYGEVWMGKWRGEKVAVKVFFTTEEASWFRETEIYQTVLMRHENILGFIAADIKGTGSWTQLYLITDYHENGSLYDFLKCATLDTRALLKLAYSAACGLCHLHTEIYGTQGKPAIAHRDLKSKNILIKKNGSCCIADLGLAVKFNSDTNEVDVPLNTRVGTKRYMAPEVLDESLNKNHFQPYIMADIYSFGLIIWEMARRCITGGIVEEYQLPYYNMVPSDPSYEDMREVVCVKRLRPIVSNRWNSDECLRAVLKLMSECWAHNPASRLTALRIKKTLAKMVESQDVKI

[10] = biological target: MAO-A (amine oxidase [flavin-containing] A) (Homo sapiens, UniProt P21397); assay: Inhibition of Monoamine Oxidase MAO-A at compound concentration of 10.0 uM in the Eurofins-Panlabs enzyme assay (Eurofins_assay_140010); set-up: substrate with concentration 50 uM Kynuramine, incubation time 60 min, incubation temperature 37 C; details: recombinant human MAO-A expressed in insect Hi5 cells, probe kynuramine (50 uM), compound concentration 10 uM
[11] = biological target: Homeodomain-interacting protein kinase 1 (Homo sapiens) (UniProt Q86Z02); assay: HIPK1 (Myak) Kinase screen; details: Compound concentration 1.0 uM
[12] = biological target: Ephrin type-A receptor 2 (Homo sapiens) (UniProt P29317); assay: EPHA2 Kinase screen; details: Compound concentration 1.0 uM
Sequence of Ephrin type-A receptor 2 (Homo sapiens) (P29317 whole entry): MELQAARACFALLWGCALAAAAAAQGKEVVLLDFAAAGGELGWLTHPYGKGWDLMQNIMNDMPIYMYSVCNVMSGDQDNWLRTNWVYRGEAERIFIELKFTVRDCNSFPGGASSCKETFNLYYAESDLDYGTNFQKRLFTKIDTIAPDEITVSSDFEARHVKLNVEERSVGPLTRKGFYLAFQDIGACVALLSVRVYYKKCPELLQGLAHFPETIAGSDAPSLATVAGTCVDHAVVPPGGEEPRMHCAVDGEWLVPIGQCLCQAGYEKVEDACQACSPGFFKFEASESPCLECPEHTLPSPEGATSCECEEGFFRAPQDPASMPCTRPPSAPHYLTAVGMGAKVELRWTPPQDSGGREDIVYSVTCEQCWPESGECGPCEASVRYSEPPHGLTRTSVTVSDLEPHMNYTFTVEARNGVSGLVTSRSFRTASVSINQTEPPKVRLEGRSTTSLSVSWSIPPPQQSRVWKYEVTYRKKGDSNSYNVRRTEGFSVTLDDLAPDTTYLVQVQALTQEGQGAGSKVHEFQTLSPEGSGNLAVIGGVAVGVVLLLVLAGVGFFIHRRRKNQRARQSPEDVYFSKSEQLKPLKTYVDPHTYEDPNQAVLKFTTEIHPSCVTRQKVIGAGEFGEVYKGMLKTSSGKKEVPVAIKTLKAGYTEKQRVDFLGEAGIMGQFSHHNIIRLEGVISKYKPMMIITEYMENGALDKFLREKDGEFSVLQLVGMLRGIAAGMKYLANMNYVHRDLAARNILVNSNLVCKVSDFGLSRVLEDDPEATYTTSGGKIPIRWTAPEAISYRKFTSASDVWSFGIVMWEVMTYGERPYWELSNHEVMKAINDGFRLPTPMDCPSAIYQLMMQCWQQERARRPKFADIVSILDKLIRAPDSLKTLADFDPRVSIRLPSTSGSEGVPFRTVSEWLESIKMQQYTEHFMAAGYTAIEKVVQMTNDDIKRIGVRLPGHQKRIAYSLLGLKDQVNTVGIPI

[13] = biological target: D(1A) dopamine receptor (Homo sapiens) (UniProt P21728); details: Compound concentration 10.0 uM
[14] = biological target: Nociceptin receptor (Homo sapiens) (UniProt P41146); assay: Orphanin ORL1 Eurofins-Panlabs radioligand binding assay; details: Compound concentration 10.0 uM
[15] = biological target: Misshapen-like kinase 1 (Homo sapiens) (UniProt Q8N4C8); assay: MINK1 Kinase screen; details: Compound concentration 1.0 uM
Sequence of Misshapen-like kinase 1 (Homo sapiens) (Q8N4C8 whole entry, looked up): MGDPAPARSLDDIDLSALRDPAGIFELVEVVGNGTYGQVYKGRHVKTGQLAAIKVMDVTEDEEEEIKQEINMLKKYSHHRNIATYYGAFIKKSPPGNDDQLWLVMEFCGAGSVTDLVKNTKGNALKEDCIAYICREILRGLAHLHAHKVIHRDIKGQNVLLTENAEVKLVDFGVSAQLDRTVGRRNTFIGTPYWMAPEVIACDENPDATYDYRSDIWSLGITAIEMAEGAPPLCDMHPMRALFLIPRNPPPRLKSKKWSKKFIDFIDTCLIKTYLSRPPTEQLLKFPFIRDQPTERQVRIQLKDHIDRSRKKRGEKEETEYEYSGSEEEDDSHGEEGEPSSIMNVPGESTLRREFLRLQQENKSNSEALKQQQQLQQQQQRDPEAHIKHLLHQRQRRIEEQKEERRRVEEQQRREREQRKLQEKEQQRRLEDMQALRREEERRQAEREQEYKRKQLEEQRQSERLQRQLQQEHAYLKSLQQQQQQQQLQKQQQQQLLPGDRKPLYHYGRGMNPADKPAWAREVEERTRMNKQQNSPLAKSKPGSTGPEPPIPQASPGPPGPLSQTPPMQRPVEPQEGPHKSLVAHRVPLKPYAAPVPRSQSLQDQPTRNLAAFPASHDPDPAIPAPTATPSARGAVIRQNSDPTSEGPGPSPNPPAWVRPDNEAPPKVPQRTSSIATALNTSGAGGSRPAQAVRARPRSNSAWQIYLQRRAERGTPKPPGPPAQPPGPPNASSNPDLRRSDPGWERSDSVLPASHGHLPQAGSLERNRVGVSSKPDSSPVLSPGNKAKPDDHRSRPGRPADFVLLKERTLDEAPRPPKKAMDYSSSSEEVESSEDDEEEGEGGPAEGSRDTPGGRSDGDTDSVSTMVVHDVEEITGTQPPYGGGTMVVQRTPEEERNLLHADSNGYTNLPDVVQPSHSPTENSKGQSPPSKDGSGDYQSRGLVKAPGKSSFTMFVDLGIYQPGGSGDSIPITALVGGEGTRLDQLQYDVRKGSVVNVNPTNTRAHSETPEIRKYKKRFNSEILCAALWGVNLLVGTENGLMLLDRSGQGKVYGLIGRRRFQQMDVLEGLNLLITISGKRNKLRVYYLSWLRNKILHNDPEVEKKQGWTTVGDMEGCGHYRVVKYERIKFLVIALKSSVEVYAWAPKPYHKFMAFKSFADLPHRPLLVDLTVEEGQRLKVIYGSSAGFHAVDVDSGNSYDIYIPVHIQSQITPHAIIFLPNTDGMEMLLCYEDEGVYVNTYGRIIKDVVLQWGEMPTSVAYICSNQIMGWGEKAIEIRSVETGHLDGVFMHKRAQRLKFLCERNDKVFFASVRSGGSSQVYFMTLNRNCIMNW

[16] = biological target: Ephrin type-A receptor 5 (Homo sapiens) (UniProt P54756); assay: EPHA5 Kinase screen; details: Compound concentration 1.0 uM
[17] = biological target: T2, Ephrin type-B receptor 3 (Homo sapiens) (UniProt P54753); assay: EPHB3 Kinase screen; details: Compound concentration 1.0 uM
T2 sequence (whole entry): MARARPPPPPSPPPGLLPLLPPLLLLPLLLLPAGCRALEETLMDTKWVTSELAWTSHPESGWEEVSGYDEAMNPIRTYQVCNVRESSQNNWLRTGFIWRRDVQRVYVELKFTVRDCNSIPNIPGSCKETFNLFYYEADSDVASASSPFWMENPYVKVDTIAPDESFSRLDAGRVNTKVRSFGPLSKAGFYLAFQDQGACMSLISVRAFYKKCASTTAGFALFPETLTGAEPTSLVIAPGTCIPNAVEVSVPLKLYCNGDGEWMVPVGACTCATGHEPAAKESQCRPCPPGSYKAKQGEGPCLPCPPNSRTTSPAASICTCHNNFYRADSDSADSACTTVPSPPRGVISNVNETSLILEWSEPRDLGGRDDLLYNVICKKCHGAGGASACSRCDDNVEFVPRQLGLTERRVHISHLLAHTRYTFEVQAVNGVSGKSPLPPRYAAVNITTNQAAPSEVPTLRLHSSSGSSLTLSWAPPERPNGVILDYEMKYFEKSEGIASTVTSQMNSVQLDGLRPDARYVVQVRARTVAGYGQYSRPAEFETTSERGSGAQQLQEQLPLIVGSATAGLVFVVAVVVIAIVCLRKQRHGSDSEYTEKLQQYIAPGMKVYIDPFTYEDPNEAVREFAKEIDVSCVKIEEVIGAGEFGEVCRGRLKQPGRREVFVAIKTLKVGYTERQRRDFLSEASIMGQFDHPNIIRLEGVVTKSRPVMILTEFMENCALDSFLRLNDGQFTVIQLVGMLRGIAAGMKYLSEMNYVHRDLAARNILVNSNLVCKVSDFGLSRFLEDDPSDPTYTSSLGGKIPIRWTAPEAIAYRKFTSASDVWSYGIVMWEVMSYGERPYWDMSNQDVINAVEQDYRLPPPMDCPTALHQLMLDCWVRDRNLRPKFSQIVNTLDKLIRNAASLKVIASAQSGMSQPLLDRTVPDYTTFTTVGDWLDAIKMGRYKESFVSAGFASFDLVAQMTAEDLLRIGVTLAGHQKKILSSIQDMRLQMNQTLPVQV

[18] = biological target: Insulin receptor (Homo sapiens) (UniProt P06213); assay: INSR Kinase screen; details: Compound concentration 1.0 uM

Sequence of Ribosomal protein S6 kinase alpha-3 (Homo sapiens) (P51812 whole entry): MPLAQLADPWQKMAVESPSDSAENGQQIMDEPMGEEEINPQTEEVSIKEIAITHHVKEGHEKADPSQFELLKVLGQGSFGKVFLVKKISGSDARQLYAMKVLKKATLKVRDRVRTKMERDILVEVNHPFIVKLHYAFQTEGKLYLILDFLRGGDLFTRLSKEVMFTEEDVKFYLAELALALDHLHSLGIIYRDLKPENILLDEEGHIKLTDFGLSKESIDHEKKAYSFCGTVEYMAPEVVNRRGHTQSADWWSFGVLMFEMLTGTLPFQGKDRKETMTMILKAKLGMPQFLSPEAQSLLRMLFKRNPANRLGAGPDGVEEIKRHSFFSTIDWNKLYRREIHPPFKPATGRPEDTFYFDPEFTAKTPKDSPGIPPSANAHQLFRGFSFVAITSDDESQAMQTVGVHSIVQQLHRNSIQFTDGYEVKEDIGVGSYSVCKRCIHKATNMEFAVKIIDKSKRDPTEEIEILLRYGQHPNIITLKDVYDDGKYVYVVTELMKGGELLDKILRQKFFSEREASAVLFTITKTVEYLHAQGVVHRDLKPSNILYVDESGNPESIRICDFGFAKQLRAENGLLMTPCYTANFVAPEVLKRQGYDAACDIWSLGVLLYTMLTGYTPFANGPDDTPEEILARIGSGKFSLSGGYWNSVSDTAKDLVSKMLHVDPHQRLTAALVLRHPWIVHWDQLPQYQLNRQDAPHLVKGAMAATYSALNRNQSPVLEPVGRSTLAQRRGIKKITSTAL

C[C@@H]1CN(c2cc(-c3n[nH]c4ccc(OC5(C)CC5)cc34)ncn2)C[C@H](C)O1 [MLi-2]
2% (not active): inhibition at 60 min, 10 µM [10]
inactive: inhibition [1] 3.91% | inhibition [2] 13.6% | inhibition [3] 17.4% | inhibition [4] 7.54% | inhibition [5] -0.0337% | inhibition [6] 10.4% | inhibition [7] 6.39% | inhibition [8] 18% | inhibition [9] 0.759% | inhibition [11] 3.08% | inhibition [12] -4.26% | inhibition [13] 12% | inhibition [14] 7% | inhibition [15] 4.58% | inhibition [16] 5.05% | inhibition [17] 9.87% | inhibition [18] -0.884%
